{"source": "patent US20090324581A1", "about": "“HETEROARYLAMIDE LOWER CARBOXYLIC ACID DERIVATIVE” (Daiichi Sankyo company Limited, priority 2006, published 2009)", "key": {"human S1P1 (EDG-1)": {"molecular_target": "T1, human S1P1 (EDG-1) (Homo sapiens, UniProt P21453)", "T1 construct": "expressed in transfected cells; host or cells: CHO-K1 cells stably expressing HA-Gqi5", "T1 sequence (P21453 whole entry)": "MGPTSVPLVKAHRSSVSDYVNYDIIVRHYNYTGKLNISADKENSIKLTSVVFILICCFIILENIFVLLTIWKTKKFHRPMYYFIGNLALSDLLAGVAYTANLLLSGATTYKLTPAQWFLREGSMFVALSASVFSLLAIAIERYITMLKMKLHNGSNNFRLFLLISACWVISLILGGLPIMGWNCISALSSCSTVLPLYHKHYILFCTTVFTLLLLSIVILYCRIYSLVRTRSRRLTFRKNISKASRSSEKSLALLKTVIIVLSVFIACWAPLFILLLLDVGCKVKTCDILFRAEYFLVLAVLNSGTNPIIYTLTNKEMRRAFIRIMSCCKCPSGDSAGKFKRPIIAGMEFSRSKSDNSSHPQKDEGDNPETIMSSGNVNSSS", "experiment": "Intracellular calcium flux assay (agonist activity against S1P1 (EDG-1) receptor)", "type": "cell-based", "details": "CHO cells expressing Gqi5 and human S1P1 (EDG-1), intracellular calcium change", "description": "The HA-Gqi5 expression plasmid, which had been produced in (2) above, was integrated into CHO-K1 cells by use of a Fugene 6 reagent (product of Roche Diagnostics K.K.), and cells of interest were selected by use of hygromycin. A CHO cell expressing HA-Gqi5 was selected through western blotting employing an anti-HA antibody, and the selected cells were cloned twice.\nBy use of a human S1P1 (EDG-1) cDNA clone (open biosystems, cDNA collection #4071217) as a template, human S1P1 (EDG-1) DNA was produced through PCR. This PCR product was integrated into pUC118. By means of a site-directed mutagenesis kit (product of STRATAGENE), a plasmid into which DNA having a target sequence (The Journal of Biological Chemistry Vol. 265, No. 16, 9308-9313, 1990) had been integrated was produced.\nA human S1P1 (EDG-1) gene (The Journal of Biological Chemistry Vol. 265, No. 16, 9308-9313, 1990) integrated into pUC118 was digested by use of restriction enzymes, and the cut fragment was purified. The fragment was ligated with an expression plasmid pcDNA3.1/mycHisA (product of Invitrogen). The ligation mixture was integrated into E. Coli DH5α, and a positive clone was selected, whereby a S1P1 (EDG-1) expression plasmid was produced.\nA S1P1 (EDG-1) expression plasmid was integrated into the CHO cells expressing HA-Gqi5, which had been produced in (3) above, by use of a Fugene 6 reagent (product of Roche Diagnostics K.K.). […] The selected cells were cloned twice.\nCHO cells expressing Gqi5 protein, to which human S1P1 (EDG-1) had been introduced and which had been produced in (6) above, were seeded on a 96-well black plate with a transparent bottom surface (2.5×10^4 cell/well) and cultured overnight. The culture was washed once with a serum-free medium, and an assay buffer (calcium assay kit, product of Molecular Devices, 100 μL) containing 2.5 mM probenicid and 0.25% fatty acid-free BSA was added to the washed cells. The mixture was allowed to react at 37° C. for one hour under […] CO2. Separately, each test compound was diluted so as to attain a concentration five times the final test concentration. The diluted liquid (25 μL) was added to each well, and change in intracellular calcium concentration was measured by means of a FLEXstation II (product of Molecular Devices). The change was determined as the difference between the minimum intracellular calcium level and the peak (maximum) value thereof. A sigmoid curve was obtained from the measurements, and an EC50 value was calculated from the curve so as to evaluate agonist activity against an S1P1 (EDG-1) receptor."}, "[1]": {"tested_on": "lymphocytes in peripheral blood", "experiment": "Decrease in peripheral blood lymphocyte count of mice after administration of each compound", "type": "in vivo", "details": "four hours after administration, peripheral blood lymphocyte count vs solvent group; for T/C(%) (3 mg/kg): 3 mg/kg peroral; for T/C(%) (10 mg/kg): 10 mg/kg peroral", "method": "2. In Vivo Evaluation of Test Substances (Decrease in Peripheral Blood Lymphocyte Count of Mice after Administration of Each Compound):\nThere has already been reported that lymphocytes in peripheral blood of mice decrease after administration of an S1P receptor agonist [SCIENCE, 296, 346-349 (2002)]. According to the evaluation method disclosed in the document, test compounds were evaluated.\nFour hours after peroral administration, blood (0.5 mL) was collected from each mouse through the posterior vena cava under anesthesia with ether by use of EDTA as an anti-coagulant. The number of lymphocytes in peripheral blood was determined by means of a general hematological tester ADVIA 120 (Bayer Medical). The pharmacological action of each test drug was evaluated as T/C (%) ratio, which is a ratio of average peripheral blood lymphocyte count of a test drug-administered group to that of the solvent-administered group (control group).\n(§1) T/C(%)=(average peripheral blood lymphocyte count of a test drug-administered group)/(average peripheral blood lymphocyte count of the solvent-administered group)×100"}, "[2]": {"tested_on": "lymphocytes in peripheral blood", "experiment": "Decrease in peripheral blood lymphocyte count of rats after administration of each compound", "type": "in vivo", "details": "rats (female Lewis), four hours after administration, peripheral blood lymphocyte count vs solvent group; for T/C(%) (3 mg/kg): 3 mg/kg peroral; for T/C(%) (10 mg/kg): 10 mg/kg peroral", "method": "3. In Vivo Evaluation of Test Substances (Decrease in Peripheral Blood Lymphocyte Count of Rats after Administration of Each Compound):\nThe effect of administration of an S1P receptor agonist on decrease in peripheral blood lymphocyte counts of rats (female Lewis) was evaluated.\nFour hours after peroral administration, blood (0.5 mL) was collected from each rat through the cervical vein under anesthesia with ether by use of EDTA as an anti-coagulant. The number of lymphocytes in peripheral blood and blood cell fractions were determined by means of a general hematological tester ADVIA 120 (Bayer Medical). The action of each test drug on reducing peripheral blood lymphocyte count was evaluated as T/C (%) ratio at the time of blood collection, which is a ratio of average peripheral blood lymphocyte count of a test drug-administered group to that of the solvent-administered group (control group).\nas §1"}, "[3]": {"tested_on": "production of cytokines such as IL-2", "details": "in vitro; cited from earlier work"}, "blood lymphocytes": {"tested_on": "blood lymphocytes", "details": "phosphorylated in the living body, acts as S1P receptor agonist; cited from earlier work"}, "[4]": {"details": "clinically tested in transplant and multiple sclerosis; cited from earlier work"}}, "note": "Counter-ions that a name gives are not always drawn.", "data": [{"smiles": "O=C(O)CCNCC(=O)N1CCc2cc(OCc3ccc(-c4ccccc4)c(C(F)(F)F)c3)ccc21", "note": "[Example 31, 3-[N-[2-Oxo-2-[5-[(2-trifluoromethyl-4-biphenyl)methoxy]indolin-1-yl]ethyl]amino]propionic acid]", "values": [{"measurement": "EC50", "setting": "human S1P1 (EDG-1); Table 2", "value": 6.3, "unit": "nM"}, {"measurement": "T/C(%) (3 mg/kg)", "setting": "[1]", "value": 30.8, "unit": "%"}, {"measurement": "T/C(%) (10 mg/kg)", "setting": "[1]", "value": 19.8, "unit": "%"}]}, {"smiles": "CC(C)c1ccc(COc2ccc3c(c2)CCN3C(=O)CNCCC(=O)O)cc1OC(F)(F)F", "note": "[Example 97, 3-[N-[2-[5-(4-Isopropyl-3-trifluoromethoxybenzyloxy)indolin-1-yl]-2-oxoethyl]amino]propionic acid hydrochloride]", "values": [{"measurement": "EC50", "setting": "human S1P1 (EDG-1); Table 4", "value": 4.7, "unit": "nM"}, {"measurement": "T/C(%) (3 mg/kg)", "setting": "[2]", "value": 22.2, "unit": "%"}, {"measurement": "T/C(%) (10 mg/kg)", "setting": "[2]", "value": 17.9, "unit": "%"}]}, {"smiles": "CCCCCCCCc1ccc(CCC(N)(CO)CO)cc1.Cl", "note": "[FTY720, 2-amino-2-[2-(4-octylphenyl)ethyl]-1,3-propanediol hydrochloride]", "values": [{"measurement": "inhibitory action on production of cytokines such as IL-2", "setting": "[3]", "value": "no inhibitory action"}, {"measurement": "reduction in blood lymphocytes", "setting": "blood lymphocytes", "value": "induce reduction in blood lymphocytes"}, {"measurement": "adverse side effect", "setting": "[4]", "value": "bradycardia is reported as an adverse side effect"}]}, {"smiles": "CN[C@H](CC(=O)O)C(=O)N1CCc2cc(OCc3ccc(C4CCCCC4)cc3C(F)(F)F)ccc21", "note": "[Example 43, 4-[5-[[4-(Cyclohexyl)-2-(trifluoromethyl)phenyl]methoxy]indolin-1-yl]-(3R)-(methylamino)-4-oxobutyric acid]", "values": [{"measurement": "EC50", "setting": "human S1P1 (EDG-1); Table 4", "value": 8.7, "unit": "nM"}, {"measurement": "T/C(%) (3 mg/kg)", "setting": "[2]", "value": 34.9, "unit": "%"}, {"measurement": "T/C(%) (10 mg/kg)", "setting": "[2]", "value": 25.7, "unit": "%"}]}, {"smiles": "CN[C@H](CC(=O)O)C(=O)N1CCc2c1ccc(OCc1ccc(C3CCCC3)c(C(F)(F)F)c1)c2C", "note": "[Example 129, 4-[5-[(4-Cyclopentyl-3-trifluoromethylphenyl)methoxy]-4-methylindolin-1-yl]-(3R)—(N-methylamino)-4-oxobutyric acid]", "values": [{"measurement": "EC50", "setting": "human S1P1 (EDG-1); Table 4", "value": 4.5, "unit": "nM"}, {"measurement": "T/C(%) (3 mg/kg)", "setting": "[2]", "value": 18.2, "unit": "%"}, {"measurement": "T/C(%) (10 mg/kg)", "setting": "[2]", "value": 17.7, "unit": "%"}]}, {"smiles": "N[C@H](CC(=O)O)C(=O)N1CCc2cc(OCc3ccc(-c4ccccc4)c(C(F)(F)F)c3)ccc21", "note": "[Example 14, (R)-3-Amino-4-oxo-4-[5-[(2-trifluoromethyl-4-biphenyl)methoxy]indolin-1-yl]butyric acid]", "values": [{"measurement": "EC50", "setting": "human S1P1 (EDG-1); Table 2", "value": 4.4, "unit": "nM"}, {"measurement": "T/C(%) (3 mg/kg)", "setting": "[1]", "value": 17.0, "unit": "%"}, {"measurement": "T/C(%) (10 mg/kg)", "setting": "[1]", "value": 11.1, "unit": "%"}]}, {"smiles": "O=C(O)CCNCC(=O)N1CCc2cc(OCc3cc(-c4ccccc4)c(C(F)(F)F)s3)ccc21", "note": "[Example 29, 3-[N-[2-Oxo-2-[5-[(4-phenyl-5-trifluoromethyl-2-thienyl)methoxy]indolin-1-yl]ethyl]amino]propionic acid]", "values": [{"measurement": "EC50", "setting": "human S1P1 (EDG-1); Table 2", "value": 2.4, "unit": "nM"}, {"measurement": "T/C(%) (3 mg/kg)", "setting": "[1]", "value": 15.5, "unit": "%"}, {"measurement": "T/C(%) (10 mg/kg)", "setting": "[1]", "value": 13.9, "unit": "%"}]}, {"smiles": "N[C@H](CC(=O)O)C(=O)N1CCc2cc(OCc3cc(-c4ccccc4)c(C(F)(F)F)s3)ccc21", "note": "[Example 10, (R)-3-Amino-4-oxo-4-[5-[(4-phenyl-5-trifluoromethyl-2-thienyl)methoxy]indolin-1-yl]butyric acid]", "values": [{"measurement": "EC50", "setting": "human S1P1 (EDG-1); Table 2", "value": 1.3, "unit": "nM"}, {"measurement": "T/C(%) (3 mg/kg)", "setting": "[1]", "value": 21.6, "unit": "%"}, {"measurement": "T/C(%) (10 mg/kg)", "setting": "[1]", "value": 16.3, "unit": "%"}]}, {"smiles": "O=C(O)[C@@H]1CCCN(CC(=O)N2CCc3cc(OCc4cc(-c5ccccc5)c(C(F)(F)F)s4)ccc32)C1", "note": "[Example 119, 1-[2-Oxo-2-[5-[(4-phenyl-5-trifluoromethyl-2-thienyl)methoxy]indolin-1-yl]ethyl]piperidine-(3R)-carboxylic acid]", "values": [{"measurement": "EC50", "setting": "human S1P1 (EDG-1); Table 4", "value": 6.2, "unit": "nM"}, {"measurement": "T/C(%) (3 mg/kg)", "setting": "[2]", "value": 28.7, "unit": "%"}, {"measurement": "T/C(%) (10 mg/kg)", "setting": "[2]", "value": 20.7, "unit": "%"}]}, {"smiles": "CN(CCC(=O)O)CC(=O)N1CCc2cc(OCc3cc(-c4ccccc4)c(C(F)(F)F)s3)ccc21", "note": "[Example 30, 3-[N-Methyl-N-[2-oxo-2-[5-[(4-phenyl-5-trifluoromethyl-2-thienyl)methoxy]indolin-1-yl]ethyl]amino]propionic acid]", "values": [{"measurement": "EC50", "setting": "human S1P1 (EDG-1); Table 2", "value": 2.9, "unit": "nM"}, {"measurement": "T/C(%) (3 mg/kg)", "setting": "[1]", "value": 21.7, "unit": "%"}, {"measurement": "T/C(%) (10 mg/kg)", "setting": "[1]", "value": 11.1, "unit": "%"}]}]}
